Like-named read-outs stand apart in the source and are kept apart here.
Experiments:
antisera from rabbit 19 [1] = type: binding; set-up: key: +++: strong; ++: medium; +: weak reaction; poor: slight; -: none; details: antisera 1:2000, 2 hours at 25° C.
Method: (§1) An ELISA was used to screen the antisera for polyclonal antibodies to the generic hapten/conjugate of the invention using the following protocol. Microtitre plates (Costar) were coated with the appropriate hapten conjugate with ovalbumin by diluting that in 0.05M sodium hydrogen carbonate/sodium carbonate buffer (pH 9.6) to give an optimum protein concentration of 1 μg/ml previously determined by chequerboard titration; protein found by Bradford assay. 100 μl was added to each microtitre plate well and the plates placed in a moist chamber overnight, washed 3 times with 0.15 phosphate buffered saline pH7.2 with 0.05% Tween 20[RTM]: PBST), and blotted dry. Blocking was carried out by adding 250 μl per well of 5% skimmed milk for 1 hour at 25° C.
(§2) After two further washings the coated microplates were stored at -20° C. until required, whereon they were washed once with PBST. Antisera were diluted (1/1000 for general screening or doubling dilutions up to 1/512,000 for titration assays) in PSBT, applied to microtitre wells in triplicate in 50 μl amounts and incubated in a moist chamber at 25° C. for 1 hour (appropriate positive and negative controls were included--PBST, negative rabbit serum and positive serum when it had been produced). Wells were then washed 3 times in PBST and 200 μl of a 1:1500 dilution of swine anti-rabbit immunoglobulin conjugated to horseradish peroxidase (DAKO) was added to each well. Plates were incubated once more for 1 hour at 25° C. then washed 3 times with PBST.
(§3) Tetramethylbenzidine (TMB) enzyme substrate solution was prepared by adding 400 μl of 6.0 g/l TMB in DMSO to 24.5 ml of 0.1M sodium acetate buffer pH5.5 with 100 μl of 1% H2 O2 and 100 μl added to the wells. The microplates were incubated for 15 minutes in the dark at 25° C. before the reaction was stopped by adding 50 μl of 2.5M H2 SO4 and the absorbance read at 450 nm against air. Results: are given below with those of Example 6.
(§4) Assay was carried out in the same manner as Example 5 with the following modifications. Antisera was diluted 1:2000 with 1% BSA in PBST and 100 μl was incubated for 2 hours at 25° C. with 100 μl of each concentration of the unconjugated OP--in this case the generic part--in a microtitration plate. Concentrations of OP ranged from 200 to 0.001 μg ml^-1.
(§5) Cross reactivity of antisera from rabbits 19, 20 and 21 by inhibition ELISA with the various organophosphorus pesticides is shown in Table 5 in which concentration (μg ml^-1) for 50% inhibition to occur is given together with the diluent in which this is achieved--PBST or % methanol in PBST for figures.

antisera from rabbit 21 [2] = type: binding; set-up: key: +++: strong; ++: medium; +: weak reaction; poor: slight; -: none; details: antisera 1:2000, 2 hours at 25° C.
Method: as §1, §2, §3, §4, §5

antisera from rabbit 20 [3] = type: binding; set-up: key to cross reactivity by inhibition ELISA, Rabbit 20: +++: strong; ++: medium; +: weak reaction; poor: slight; -: none; details: for concentration for 50% inhibition: Rabbit 20; for cross reactivity by inhibition ELISA, Rabbit 20: antisera 1:2000, 2 hours at 25° C.
Method: as §1, §2, §3, §4, §5

generic antibodies = test: Relative inhibition of binding of generic antibodies to hapten conjugate; set-up: species or system rabbit; details: inhibition at 100 μg/ml minus inhibition at 0.1 μg/ml organophosphate
Method: as §4

antisera from rabbit 19 [4] = test: Competitive/inhibition ELISA, antisera pre-incubated with unconjugated OP, 1 μg/ml OP-Ova; type: binding; details: 1 hour at 25° C.
Method: as §1, §2, §3
(§6) This assay was carried out in the same manner as that of Example 5 with the following modifications. After plate coating the various dilutions of antisera were incubated with various concentrations of analyte solution for 1 to 2 hours at 25° C. or overnight at 4° C. Antiserum dilutions tested were 1/1000, 1/2000, 1/5000 and 1/10000 and the concentrations of the analyte ranged from 200 to 0.001 μg/ml. Coating of generic hapten-ovalbumin was at 1 μg/ml and later other coating strengths were tested ranging from 400 to 12.5 ng/ml. Note: cross reactivity in all cases was checked by carrying out an indirect ELISA where plates were coated with the blocking agents or BSA or ovalbumin at 1 μg/ml. Skimmed milk, foetal calf serum (both 5%), caesin (0.3%) or fish skin gelatin (0.5%) were selected as the blocking agent in this regard. Use of competitive assay is preferred for determining cross-reactivity.
(§7) 400 to 0.012 μg/ml conjugate for 200 to 0.001 μg/ml analyte detection.

antisera from rabbit 20 [5] = test: as above; type: binding; details: 1 hour at 25° C.
Method: as §1, §2, §3, §6, §7

antisera from rabbit 21 [6] = test: as above; type: binding; details: 1 hour at 25° C.
Method: as §1, §2, §3, §6, §7

Rabbit 20 antisera = test: Competitive/inhibition ELISA, antisera preincubated with OP for 2 hours, plate coated with 400 μg/ml OP-Ova; type: binding; details: 2 hours at 25° C.
Method: as §1, §2, §3, §6, §7

Structure (SMILES): COP(=S)(OC)OCCCCO [Hapten + spacer, (CH3 O)2 P(S)--O--(CH2)4 --OH]
- cross reactivity by inhibition ELISA, Rabbit 19 (antisera from rabbit 19 [1]): +++
- cross reactivity by inhibition ELISA, Rabbit 21 (antisera from rabbit 21 [2]): +++
- concentration for 50% inhibition (antisera from rabbit 20 [3]; diluent PBST): 3.0 µg/mL
- cross reactivity by inhibition ELISA, Rabbit 20 (antisera from rabbit 20 [3]): +++
- Relative inhibition of binding of generic antibodies to hapten conjugate as % of hapten + spacer inhibition (generic antibodies): 100.0%

Structure (SMILES): CCOC(=O)CC(SP(=S)(OC)OC)C(=O)OCC (stereo not shown) [Malathion, malathion]
- cross reactivity by inhibition ELISA, Rabbit 19 (antisera from rabbit 19 [1]): -
- cross reactivity by inhibition ELISA, Rabbit 21 (antisera from rabbit 21 [2]): -
- cross reactivity by inhibition ELISA, Rabbit 20 (antisera from rabbit 20 [3]): +
- Relative inhibition of binding of generic antibodies to hapten conjugate as % of hapten + spacer inhibition (generic antibodies): 38.6%

Structure (SMILES): COC(=O)/C(C)=C/OP(=S)(OC)OC [Methacrifos, methacrifos]
- cross reactivity by inhibition ELISA, Rabbit 19 (antisera from rabbit 19 [1]): +
- cross reactivity by inhibition ELISA, Rabbit 21 (antisera from rabbit 21 [2]): +
- concentration for 50% inhibition (antisera from rabbit 20 [3]; diluent PBST): 8.2 µg/mL
- cross reactivity by inhibition ELISA, Rabbit 20 (antisera from rabbit 20 [3]): +++
- Relative inhibition of binding of generic antibodies to hapten conjugate as % of hapten + spacer inhibition (generic antibodies): 89.1%

Structure (SMILES): COP(=S)(OC)OCCCCO [OP]
- absorbance after pre-incubation with OP (antisera from rabbit 19 [4]; OP 0.01 μg/ml): 1.83
- absorbance after pre-incubation with OP (antisera from rabbit 19 [4]; OP 0.1 μg/ml): 1.73
- absorbance after pre-incubation with OP (antisera from rabbit 19 [4]; OP 0.4 μg/ml): 1.66
- absorbance after pre-incubation with OP (antisera from rabbit 19 [4]; OP 3.1 μg/ml): 1.50
- absorbance after pre-incubation with OP (antisera from rabbit 19 [4]; OP 12.5 μg/ml): 1.36
- absorbance after pre-incubation with OP (antisera from rabbit 19 [4]; OP 50.0 μg/ml): 1.34
- absorbance after pre-incubation with OP (antisera from rabbit 20 [5]; OP 0.01 μg/ml): 1.95
- absorbance after pre-incubation with OP (antisera from rabbit 20 [5]; OP 0.1 μg/ml): 1.95
- absorbance after pre-incubation with OP (antisera from rabbit 20 [5]; OP 0.4 μg/ml): 1.81
- absorbance after pre-incubation with OP (antisera from rabbit 20 [5]; OP 3.1 μg/ml): 1.54
- absorbance after pre-incubation with OP (antisera from rabbit 20 [5]; OP 12.5 μg/ml): 1.31
- absorbance after pre-incubation with OP (antisera from rabbit 20 [5]; OP 50.0 μg/ml): 1.19
- absorbance after pre-incubation with OP (antisera from rabbit 21 [6]; OP 0.01 μg/ml): 1.52
- absorbance after pre-incubation with OP (antisera from rabbit 21 [6]; OP 0.1 μg/ml): 1.42
- absorbance after pre-incubation with OP (antisera from rabbit 21 [6]; OP 0.4 μg/ml): 1.45
- absorbance after pre-incubation with OP (antisera from rabbit 21 [6]; OP 3.1 μg/ml): 1.34
- absorbance after pre-incubation with OP (antisera from rabbit 21 [6]; OP 12.5 μg/ml): 1.02
- absorbance after pre-incubation with OP (antisera from rabbit 21 [6]; OP 50.0 μg/ml): 1.24
- absorbance after preincubation with OP (Rabbit 20 antisera; antisera 1/1000, OP conc 0.001): 1.38
- absorbance after preincubation with OP (Rabbit 20 antisera; antisera 1/1000, OP conc 0.01): 1.58
- absorbance after preincubation with OP (Rabbit 20 antisera; antisera 1/1000, OP conc 0.1): 1.48
- absorbance after preincubation with OP (Rabbit 20 antisera; antisera 1/1000, OP conc 1.0): 1.24
- absorbance after preincubation with OP (Rabbit 20 antisera; antisera 1/1000, OP conc 10.0): 0.94
- absorbance after preincubation with OP (Rabbit 20 antisera; antisera 1/1000, OP conc 20.0): 0.87
- absorbance after preincubation with OP (Rabbit 20 antisera; antisera 1/1000, OP conc 100.0): 0.82
- absorbance after preincubation with OP (Rabbit 20 antisera; antisera 1/1000, OP conc 200.0): 0.89
- absorbance after preincubation with OP (Rabbit 20 antisera; antisera 1/2000, OP conc 0.001): 1.10
- absorbance after preincubation with OP (Rabbit 20 antisera; antisera 1/2000, OP conc 0.01): 1.11
- absorbance after preincubation with OP (Rabbit 20 antisera; antisera 1/2000, OP conc 0.1): 1.04
- absorbance after preincubation with OP (Rabbit 20 antisera; antisera 1/2000, OP conc 1.0): 0.87
- absorbance after preincubation with OP (Rabbit 20 antisera; antisera 1/2000, OP conc 10.0): 0.74
- absorbance after preincubation with OP (Rabbit 20 antisera; antisera 1/2000, OP conc 20.0): 0.67
- absorbance after preincubation with OP (Rabbit 20 antisera; antisera 1/2000, OP conc 100.0): 0.67
- absorbance after preincubation with OP (Rabbit 20 antisera; antisera 1/2000, OP conc 200.0): 0.69

Structure (SMILES): CCN(CC)c1nc(C)cc(OP(=S)(OC)OC)n1 [Pirimiphos-methyl, pirimiphos-methyl]
- cross reactivity by inhibition ELISA, Rabbit 19 (antisera from rabbit 19 [1]): -
- cross reactivity by inhibition ELISA, Rabbit 21 (antisera from rabbit 21 [2]): -
- cross reactivity by inhibition ELISA, Rabbit 20 (antisera from rabbit 20 [3]): poor
- Relative inhibition of binding of generic antibodies to hapten conjugate as % of hapten + spacer inhibition (generic antibodies): 21.1%

Structure (SMILES): CCNP(=S)(OC)O/C(C)=C/C(=O)OC(C)C (stereo not shown) [Propetamphos, propetamphos]
- cross reactivity by inhibition ELISA, Rabbit 19 (antisera from rabbit 19 [1]): +
- cross reactivity by inhibition ELISA, Rabbit 21 (antisera from rabbit 21 [2]): ++
- concentration for 50% inhibition (antisera from rabbit 20 [3]; diluent 10% methanol in PBST): 36.2 µg/mL
- cross reactivity by inhibition ELISA, Rabbit 20 (antisera from rabbit 20 [3]): +++
- Relative inhibition of binding of generic antibodies to hapten conjugate as % of hapten + spacer inhibition (generic antibodies): 75.9%

Structure (SMILES): OCCCCO [Spacer, 1,4 butanediol]
- cross reactivity by inhibition ELISA, Rabbit 19 (antisera from rabbit 19 [1]): -
- cross reactivity by inhibition ELISA, Rabbit 21 (antisera from rabbit 21 [2]): -
- cross reactivity by inhibition ELISA, Rabbit 20 (antisera from rabbit 20 [3]): -

Structure (SMILES): COP(=O)(OC)O/C(=C\Cl)c1cc(Cl)c(Cl)cc1Cl [Tetrachlorvinphos, tetrachlorvinphos]
- cross reactivity by inhibition ELISA, Rabbit 19 (antisera from rabbit 19 [1]): -
- cross reactivity by inhibition ELISA, Rabbit 21 (antisera from rabbit 21 [2]): poor
- cross reactivity by inhibition ELISA, Rabbit 20 (antisera from rabbit 20 [3]): poor
- Relative inhibition of binding of generic antibodies to hapten conjugate as % of hapten + spacer inhibition (generic antibodies): 27.2%

From US5830770A, “Hapten-protein conjugates for use in detection of organophosphorus compounds” (priority 1993, dated 1998)
